Data on one compound can be found in US9259396B2, “Method of preparing soy isoflavone nanoparticles by precipitation with compressed antisolvent (PCA) using a supercritical fluid” (Nano and Advanced Materials Institute Limited, priority 2012, dated 2016).

The nature of series [1]: Dissolution rate study in a dissolution medium. In kind it is physicochemical. The following applies: over a period of 20 minutes. The procedure: FIG. 9 is dissolution profiles of raw genistein versus PCA processed genistein under different pressures of 70 bar (Run 6) and 100 bar (Run 4).
46% weight percentage of the processed genistein from Run 4 (100 bar) is dissolved in a dissolution medium while only 23% of the unprocessed genistein is dissolved over a period of 20 minutes. This 2-fold increase in dissolution rate can be credited to the reduction in particle size resulting in an increase in total surface area. However, the dissolution rate for particles which are obtained at 70 bar with smaller particles (Run 6) is slower than that of particles obtained at 100 bar (Run 4).

The nature of series [2]: Saturation concentration of genistein in acetone. Particulars: room temperature and atmospheric pressure. In kind it is physicochemical. The procedure: As used herein, the concentration of genistein means the concentration of the genistein dissolved in an organic solvent such as acetone at room temperature and atmospheric pressure. The saturation point of genistein concentration dissolved in acetone at room temperature and atmospheric pressure is 4 mg/mL.

On to `O=c1c(-c2ccc(O)cc2)coc2cc(O)cc(O)c12` [unprocessed genistein, genistein], for which the “weight percentage dissolved in a dissolution medium” value in series [1] came out at 23%. In addition, the “saturation point of genistein concentration dissolved in acetone” value in series [2] was determined as 4 mg/mL.
